Data published in patent US20210024499A1, “OXIDIZED BIS(3-INDOLYL)METHANES AND USES THEREOF” (Sanford Burnam Prebys Medical Discovery Institute, priority 2018, published 2021).

Tested on: Bcl-2−/−MEFs
Assay: PARP cleavage, Bcl-2-/- MEFs
Format: cell-based, mouse
Conditions: 0.5 μM
Description: The apoptotic effect of Compound 1 was also examined in mouse embryonic fibroblast (MEF) and MEF lacking Bcl-2 (Bcl-2^−/−MEF). […] Apoptotic cells were counted in 200 cells.

FC(F)(F)c1ccc([C+](c2c[nH]c3ccccc23)c2c[nH]c3ccccc23)cc1 [Compound 1, Bis(1H-indol-3-yl)(4-(trifluoromethyl)phenyl)methylium methanesulfonate]
PARP cleavage: no apparent effect
